Test results reported in ChEMBL document CHEMBL1201862, “PubChem BioAssay data set” (2004).
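Values below derive from 48-hour exposures of cells grown in 96-well plates, with endpoints linearly interpolated between the two concentrations bracketing the appropriate inhibition level. GI50: concentration for 50% inhibition of growth.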 Activity calls are given as the source filed them. Rule as the data show it: active = GI50 up to about 1.1 µM and inactive = higher.

Tests used:
Assay in all cases: growth of human tumour cells (NCI), 48 h
TK-10 = system: TK-10
M14 = system: M14
UACC-62 = system: UACC-62
NCI-H522 = system: NCI-H522
MCF7 = system: MCF7
HT-29 = system: HT-29
HL-60 = system: HL-60
A498 = system: A498
SNB-19 = system: SNB-19
SK-MEL-5 = system: SK-MEL-5
RPMI-8226 = system: RPMI-8226
COLO 205 = system: COLO 205
OVCAR-4 = system: OVCAR-4
IGROV-1 = system: IGROV-1
786-0 = system: 786-0
SF-268 = system: SF-268
SK-MEL-2 = system: SK-MEL-2
MDA-MB-435 = system: MDA-MB-435
UO-31 = system: UO-31
CCRF-CEM = system: CCRF-CEM

Row | SMILES | GI50 (TK-10) | GI50 (M14) | GI50 (UACC-62) | GI50 (NCI-H522) | GI50 (MCF7) | GI50 (HT-29) | GI50 (HL-60) | GI50 (A498) | GI50 (SNB-19) | GI50 (SK-MEL-5) | GI50 (RPMI-8226) | GI50 (COLO 205) | GI50 (OVCAR-4) | GI50 (IGROV-1) | GI50 (786-0) | GI50 (SF-268) | GI50 (SK-MEL-2) | GI50 (MDA-MB-435) | GI50 (UO-31) | GI50 (CCRF-CEM)
1 | O=C(O)CSc1ccn(Cc2ccccc2)c1 | > 100 µM (inactive) | > 100 µM (inactive) | > 100 µM (inactive) | > 100 µM (inactive) | > 100 µM (inactive) | > 100 µM (inactive) | > 100 µM (inactive) | > 100 µM (inactive) | > 100 µM (inactive) | > 100 µM (inactive) | > 100 µM (inactive) | > 100 µM (inactive) | > 100 µM (inactive) | > 100 µM (inactive) | > 100 µM (inactive) | > 100 µM (inactive) | > 100 µM (inactive) | > 100 µM (inactive) | > 100 µM (inactive) | > 100 µM (inactive)
2 | C=C1COC(O)(C2OCOC(C3CC(=O)NC(=O)C3)C2O)C1C (stereo not given) | 0.00895 µM (active) | 0.00442 µM (active) | 0.00429 µM (active) | 0.000716 µM (active) | 0.00268 µM (active) | 0.00278 µM (active) | 0.00303 µM (active) | 0.0018 µM (active) | 0.00233 µM (active) | 0.00126 µM (active) | 0.00269 µM (active) | 0.00244 µM (active) | 0.00342 µM (active) | 0.00562 µM (active) | 0.00512 µM (active) | 0.00511 µM (active) | 0.0016 µM (active) | 0.00333 µM (active) | 0.00105 µM (active) | 0.00106 µM (active)
3 | CC(C)C(Nc1ncnc2nc[nH]c12)C(=O)O (stereo not given) | > 100 µM (inactive) | > 100 µM (inactive) | > 100 µM (inactive) | > 100 µM (inactive) | > 100 µM (inactive) | > 100 µM (inactive) | > 100 µM (inactive) | > 100 µM (inactive) | > 100 µM (inactive) | > 100 µM (inactive) | > 100 µM (inactive) | > 100 µM (inactive) | > 100 µM (inactive) | > 100 µM (inactive) | > 100 µM (inactive) | > 100 µM (inactive) | > 100 µM (inactive) | > 100 µM (inactive) | > 100 µM (inactive) | > 100 µM (inactive)
4 | CCCCc1ccc(Nc2nc(OC)c3ncn(C4CC(O)C(CO)O4)c3n2)cc1 (stereo not given) | 23.4 µM (inactive) | 28.9 µM (inactive) | 17 µM (inactive) | 1.86 µM (inactive) | 14.2 µM (inactive) | 19.2 µM (inactive) | 2.05 µM (inactive) | 19.7 µM (inactive) | 19.2 µM (inactive) | 18.7 µM (inactive) | 27.2 µM (inactive) | 14.2 µM (inactive) | 18 µM (inactive) | 12.5 µM (inactive) | 16.4 µM (inactive) | 16.6 µM (inactive) | 20.2 µM (inactive) | 17.7 µM (inactive) | 19.2 µM (inactive) | 17.5 µM (inactive)
5 | COC(=O)CN1c2nc(C#N)c(C#N)nc2N(CC(=O)OC)c2nc(C#N)c(C#N)nc21 | 2.5 µM (inactive) | 1.84 µM (inactive) | 5.45 µM (inactive) | 0.863 µM (active) | 3.13 µM (inactive) | 3.02 µM (inactive) | 2.26 µM (inactive) | 15.3 µM (inactive) | 12 µM (inactive) | 5.4 µM (inactive) | 1.87 µM (inactive) | 1.26 µM (inactive) | 3.1 µM (inactive) | 3.46 µM (inactive) | 2.09 µM (inactive) | 4.05 µM (inactive) | 8.81 µM (inactive) | 2.64 µM (inactive) | 1.69 µM (inactive) | 1.01 µM (active)
6 | N=C1N=C(N)c2cc3c(cc21)SCCSCCCSCCS3 | 15.1 µM (inactive) | 16.6 µM (inactive) | 22 µM (inactive) | 2.8 µM (inactive) | 27 µM (inactive) | 11.2 µM (inactive) | 3.77 µM (inactive) | > 44.7 µM (inactive) | 15.5 µM (inactive) | 16 µM (inactive) | > 10 µM (inactive) | 12 µM (inactive) | 19.8 µM (inactive) | 17.2 µM (inactive) | 14.2 µM (inactive) | 12.8 µM (inactive) | 16.1 µM (inactive) | 11.1 µM (inactive) | 49.9 µM (inactive) | 3.95 µM (inactive)
7 | O=C1C(Cl)=C(N2CCN(c3ncccn3)CC2)C(=O)c2c(O)ccc(O)c21 | 1.89 µM (inactive) | 1.88 µM (inactive) | 2.59 µM (inactive) | 2.2 µM (inactive) | 1.51 µM (inactive) | 2.98 µM (inactive) | 0.0515 µM (active) | 2.9 µM (inactive) | 6.55 µM (inactive) | 2.17 µM (inactive) | 2.49 µM (inactive) | 1.75 µM (inactive) | 1.98 µM (inactive) | 1.9 µM (inactive) | 1.6 µM (inactive) | 3.15 µM (inactive) | 1.03 µM (active) | 1.67 µM (inactive) | 2.07 µM (inactive) | 0.211 µM (active)
8 | CCC(=O)Nc1cccc(/N=C/c2ccc(OC(=O)/C=C\c3ccccc3)cc2)c1 | > 75 µM (inactive) | > 75 µM (inactive) | 30.8 µM (inactive) | 33.7 µM (inactive) | 25.2 µM (inactive) | 36.3 µM (inactive) | > 75 µM (inactive) | > 75 µM (inactive) | > 75 µM (inactive) | 29.9 µM (inactive) | 43.8 µM (inactive) | 64.7 µM (inactive) | 45.4 µM (inactive) | 37.8 µM (inactive) | 65.9 µM (inactive) | 36.7 µM (inactive) | > 75 µM (inactive) | > 75 µM (inactive) | 51.2 µM (inactive) | > 75 µM (inactive)
9 | COc1c(-c2ccc3c(c2)OCO3)oc2cc(O)cc(O)c2c1=O | 95.1 µM (inactive) | 69.8 µM (inactive) | 46.6 µM (inactive) | 19.2 µM (inactive) | 21.6 µM (inactive) | 36.6 µM (inactive) | 41.5 µM (inactive) | 21.9 µM (inactive) | > 100 µM (inactive) | 56.5 µM (inactive) | 34 µM (inactive) | > 100 µM (inactive) | 29.5 µM (inactive) | 26.2 µM (inactive) | 38.4 µM (inactive) | 32.6 µM (inactive) | > 100 µM (inactive) | 45.7 µM (inactive) | 7.19 µM (inactive) | 41.4 µM (inactive)
10 | CCOc1ccc(/N=C/c2ccnc3ccccc23)cc1 | 92.3 µM (inactive) | 30.3 µM (inactive) | 60.8 µM (inactive) | 36.3 µM (inactive) | 5.98 µM (inactive) | 27.3 µM (inactive) | 2.05 µM (inactive) | > 100 µM (inactive) | 82.8 µM (inactive) | 8.15 µM (inactive) | 6.53 µM (inactive) | 81.3 µM (inactive) | 62.8 µM (inactive) | 43 µM (inactive) | 57.1 µM (inactive) | 27.2 µM (inactive) | 61.8 µM (inactive) | 42.7 µM (inactive) | 45.2 µM (inactive) | 2.63 µM (inactive)
11 | C=C1C(=O)CC2C(=O)C(C)(O)CC/C=C(\C)C(=O)CC12 (stereo not given) | 12.7 µM (inactive) | 16.4 µM (inactive) | 30.3 µM (inactive) | 3.19 µM (inactive) | 11.2 µM (inactive) | 17 µM (inactive) | 1.53 µM (inactive) | > 86.9 µM (inactive) | > 91.4 µM (inactive) | 14.7 µM (inactive) | 15 µM (inactive) | 9.84 µM (inactive) | 37.6 µM (inactive) | 15.3 µM (inactive) | 16.1 µM (inactive) | 19.5 µM (inactive) | 28.8 µM (inactive) | 24.6 µM (inactive) | 6.7 µM (inactive) | 4.23 µM (inactive)
12 | COc1cccc(C2SCC(=O)N2c2ccc(-c3ccc(-n4c(-c5ccccc5)nc5ccccc5c4=O)cc3)cc2)c1OC (stereo not given) | > 100 µM (inactive) | > 100 µM (inactive) | 29 µM (inactive) | > 100 µM (inactive) | 25.2 µM (inactive) | 68.4 µM (inactive) | 73.8 µM (inactive) | > 100 µM (inactive) | > 100 µM (inactive) | 30.1 µM (inactive) | > 100 µM (inactive) | > 100 µM (inactive) | 77.6 µM (inactive) | 99.1 µM (inactive) | > 100 µM (inactive) | 71.8 µM (inactive) | > 100 µM (inactive) | 53.5 µM (inactive) | 32.8 µM (inactive) | 67.1 µM (inactive)
13 | C[Si](C)(C)C1=C([Si](C)(C)C)C(Cl)(Cl)C1=O | 1.68 µM (inactive) | 2.65 µM (inactive) | 2.38 µM (inactive) | 1.27 µM (inactive) | 6.15 µM (inactive) | 3.11 µM (inactive) | 0.217 µM (active) | 15.5 µM (inactive) | 16 µM (inactive) | 1.98 µM (inactive) | 0.8 µM (active) | 2.04 µM (inactive) | 3.28 µM (inactive) | 3.73 µM (inactive) | 2.58 µM (inactive) | 5.94 µM (inactive) | 9.12 µM (inactive) | 2 µM (inactive) | 2.34 µM (inactive) | 0.232 µM (active)
14 | NC(=O)C1CCCN1C(=O)N(CCCl)N=O (stereo not given) | > 100 µM (inactive) | > 100 µM (inactive) | > 100 µM (inactive) | > 100 µM (inactive) | > 100 µM (inactive) | > 100 µM (inactive) | > 100 µM (inactive) | > 100 µM (inactive) | > 100 µM (inactive) | > 100 µM (inactive) | > 100 µM (inactive) | > 100 µM (inactive) | > 100 µM (inactive) | > 100 µM (inactive) | > 100 µM (inactive) | 74.1 µM (inactive) | > 100 µM (inactive) | > 100 µM (inactive) | > 100 µM (inactive) | > 100 µM (inactive)
